Columns and labels:
Assay type in all cases: cell-based
mouse melanopsin WT = biological target: T1, mouse melanopsin WT (Mus musculus, UniProt Q9QXZ9); experiment: GsX GloSensor assay with Gsα/q11; settings: COS-1 cells
T1 construct: expressed in transfected cells; host or cells: COS-1
T1 sequence (Q9QXZ9 1-381 limits assumed): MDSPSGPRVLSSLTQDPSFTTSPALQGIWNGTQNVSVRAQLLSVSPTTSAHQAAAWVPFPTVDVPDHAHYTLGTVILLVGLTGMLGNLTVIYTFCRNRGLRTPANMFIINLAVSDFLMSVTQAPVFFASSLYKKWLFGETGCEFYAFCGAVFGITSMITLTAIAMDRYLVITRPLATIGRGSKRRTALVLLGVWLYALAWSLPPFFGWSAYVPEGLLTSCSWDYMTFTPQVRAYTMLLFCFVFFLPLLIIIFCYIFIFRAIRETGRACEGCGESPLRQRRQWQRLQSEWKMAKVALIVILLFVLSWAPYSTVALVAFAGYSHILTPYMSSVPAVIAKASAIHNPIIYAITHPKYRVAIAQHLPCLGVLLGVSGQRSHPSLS
From the text: (§1) To quantify the antagonistic effects of AA92593 on mammalian melanopsins, we used the GsX GloSensor assay ([12], [13], [14]). This assay measures GPCR-induced increases in intracellular cAMP levels even for Gq-, Gi/o-, or G12-coupled receptors by using Gsα chimeras ([12], [13], [14]). Because melanopsin is primarily coupled with Gq-type G proteins, a Gsα mutant with 11 C-terminal sequence of Gqα (Gsα/q11) was expressed in COS-1 cells with melanopsin and a luciferase-based cAMP biosensor (see “Experimental procedures”) ([15]). This assay enables the measurement of Gq activation by melanopsin as cAMP production (an increase in luminescence). In this study, we used C-terminal–truncated melanopsin constructs to increase the expression levels with minimal compromise in functionality ([9], [16], [17], [18], [19]). […] In addition, the C-terminal region is located far from the binding site of AA92593 (see below). Hereafter, the C-terminal–truncated melanopsin constructs are named as “WT.”
(§2) In the constructs for melanopsin expression (opsin name - GenBank ID: human melanopsin - NM_033282.4, mouse melanopsin - NM_013887.2, Xenopus Opn4x - NM_001085674.1, chicken opn4-1 - NM_001397961.1, B. belcheri melanopsin - AB205400.1, and B. lanceolatum melanopsin - MF464477.1), the C-terminal amino acid residues (94, 140, 200, 214, 296, and 308 residues for human ([9]), mouse ([9]), Xenopus, chicken, belcheri ([16]), and lanceolatum melanopsins, respectively) were removed, the 1D4 tag sequence (ETSQVAPA) was added, and inserted into the EcoRI/NotI site in a mammalian expression vector pMT. Jumping spider rhodopsin-1 (GenBank ID: AB251846.1) was also added with the 1D4 tag and inserted into pMT vector. Human and mouse melanopsins, and jumping spider rhodopsin-1 in pCDNA3.1 were kindly provided from Drs. Akihisa Terakita and Mitsumasa Koyanagi (Osaka Metropolitan University). In this paper, each opsin with the C-terminal sequence modifications as described above is denoted “WT.” Bovine Gsα and its mutants Gsα/q11 and Gsα/i11 (C-terminal 11 residues are replaced with Gqα and Giα, respectively) were also inserted into the pMT vector. The GFP-tagged melanopsin constructs, in which EGFP protein fused with C-termini of melanopsins, were prepared as previously described ([9], [50]). […]
(§3) For GloSensor assay, opsins, GloSensor assay sensor (coded by pGlo-22F), and NanoBiT-tagged G proteins were transiently expressed in COS-1 cells (kindly provided from Dr David Farrens, Oregon Health and Science University) using PEI as described previously ([24], [52]). […] For GFP-fluorescence microscopy, a 35-mm cell culture dish (IWAKI) was transfected with 2 μg melanopsin-GFP plasmid and 8 μg PEI in 400 μl Opti-mem and 1.2 ml D-MEM. […]

human melanopsin WT = biological target: T2, human melanopsin WT (Homo sapiens, UniProt Q9UHM6); experiment: GsX GloSensor assay with Gsα/q11 (light-induced cAMP response); settings: COS-1 cells
T2 construct: expressed in transfected cells; host or cells: COS-1
T2 sequence (Q9UHM6 1-384 limits assumed): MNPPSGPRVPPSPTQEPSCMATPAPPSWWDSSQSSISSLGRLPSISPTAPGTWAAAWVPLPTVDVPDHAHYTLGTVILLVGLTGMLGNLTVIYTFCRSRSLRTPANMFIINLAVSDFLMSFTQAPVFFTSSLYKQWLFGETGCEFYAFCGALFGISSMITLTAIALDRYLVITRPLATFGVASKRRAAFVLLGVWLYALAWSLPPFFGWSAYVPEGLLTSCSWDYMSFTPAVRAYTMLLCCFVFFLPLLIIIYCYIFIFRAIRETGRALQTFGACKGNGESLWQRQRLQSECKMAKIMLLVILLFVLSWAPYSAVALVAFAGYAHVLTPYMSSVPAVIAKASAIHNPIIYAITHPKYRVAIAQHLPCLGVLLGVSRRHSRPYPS
From the text: as §1, §2, §3

human melanopsin = biological target: T3, human melanopsin (Homo sapiens, UniProt Q9UHM6); experiment: GloSensor cAMP assay via endogenous G proteins; design: the C-terminal amino acid residues (94, 140, 200, 214, 296, and 308 residues); expressed in transfected cells; host or cells: COS-1; settings: COS-1 cells, no exogenous G protein
T3 sequence (Q9UHM6 1-384 limits assumed): T2 sequence (Q9UHM6 1-384 limits assumed)

[1] = 0.1 μM 9-cis-retinal, white light 10 s, n = 3, read-out: IC50, reduction in peak cAMP responses upon Gsα/q11 activation
[2] = relative peak cAMP response vs no AA92593

SMILES: COc1ccc(S(=O)(=O)N2CCCCC2)cc1C [AA92593]
- Hill fitting parameter rate of dose-response curve (mouse melanopsin WT): −1.15 ± 0.18
- IC50 (mouse melanopsin WT; [1]): 2980 ± 580 nM
- Hill fitting parameter max of dose-response curve (mouse melanopsin WT; [2]): 98.86 ± 1.11
- Hill fitting parameter min of dose-response curve (mouse melanopsin WT; [2]): 46.53 ± 4.15
- Hill fitting parameter rate of dose-response curve (human melanopsin WT): −0.92 ± 0.21
- IC50 (human melanopsin WT; [1]): 1050 ± 280 nM
- Hill fitting parameter max of dose-response curve (human melanopsin WT; [2]): 102.59 ± 2.72
- Hill fitting parameter min of dose-response curve (human melanopsin WT; [2]): 13.65 ± 7.28
- effect on endogenous G protein-induced cAMP responses (human melanopsin): inhibited
